The record followed here is US10287270B2, “Amino pyrimidine SSAO inhibitors” (ELI LILLY AND COMPANY, priority 2016, dated 2019).

Where a name gives a salt, the structure may show the parent alone. Read-outs that look alike come from different tables or passages of the source.

In general, IC50 refers to the concentration at which inhibition is half-maximal.

In series [1] the target is human recombinant SSAO (hSSAO) (Homo sapiens (Human), UniProt Q16853). Briefly: SSAO/VAP-1 in vitro activity, MAO-Glo assay, recombinant SSAO. It is filed as biochemical. The settings on record: substrate 10 μM, mean ± SEM, read-out: hSSAO Inhib Rel IC50. As for the experimental part:
Amine oxidase activity of recombinant SSAO, MAOa, and MAOb isoforms are measured using the MAO-Glo™ assay kit from Promega (V1402). Test compounds (with DMSO as vehicle, 0.5% v/v for SSAO) and the enzyme are incubated for 10 mins at room temperature before the addition of the luminogenic substrate. The substrate concentration is 10 μM for human recombinant SSAO. The assays are conducted in a pH 7.4 buffer (50 mM HEPES, 120 mM NaCl, 5 mM KCl, 2 mM CaCl2, 1.4 mM MgCl2, 0.001% Tween-20) in a well-plate. Oxidation of the substrate is conducted for 2 hrs before the addition of detecting reagent according the manufacture's protocol. The IC50 value of the tested compounds is calculated by fitting the dose response curve using a 4-parameter non-linear regression routine.

Series [2] relates to Male C57BL/6N mice fed 3H diet. Briefly: Mouse model of NASH and fibrosis induced by 3H diet. It is filed as in vivo. As to conditions: for Hepatic inflammation Score (0-3) Left / Macrovesicular vaculation Score (0-3) Left / Perisinusoidal fibrosis Score (0-3) Left: left lobe; for Hepatic inflammation Score (0-3) Right / Macrovesicular vaculation Score (0-3) Right / Perisinusoidal fibrosis Score (0-3) Right: right lobe. Here is the method: Male C57BL/6N mice are fed with D09100301 diet (Research Diets, 40% fat, 2% cholesterol, 24% fructose, (the, high fat, high cholesterol and high fructose, the “3H diet”) for 150 days. Each mouse is then singly housed after 5 days for an acclimation period. Plasma alanine aminotransferase (ALT) and cytokeratin 18 (CK18) are measured. After one week of recovery, the mice are randomized into 5 groups based on their ALT values, CK18 values, and body weight. […] Blood is collected from mice treated with the compound of Example 6 for 76 days 2 hours after the last dose. Compound levels in the plasma are analyzed by mass spectroscopy. […] At the completion of the study, the animals are sacrificed and their livers excised. Two sections of the left and right lobes are fixed in neutral buffered 10% formalin. Liver tissue slides are stained with hematoxylin and eosin (H&E), Sirius red, and Masson's Trichrome to prepare slides for pathological analysis. All specimens are examined microscopically and scored as a modified Brunt score NASH Activity Score. Scores are based on the grading scheme and end-points as described in Brunt E. M, et al., “Histopathology of nonalcoholic fatty liver disease,” World J. of Gastroenterol, 2010, 16(42), 5286-5296. Group means are then calculated for each individual end-point. The following endpoints are used to characterize the fast food model of NASH in mice as modified from NASH endpoints (See Brunt, E. M. “Histopathology of nonalcoholic fatty liver disease,” Clin Liver Dis., 2009, 13, 533-544 and Brunt, E. M, et al., “Nonalcoholic steatohepatitis: A proposal for grading and staging the histological lesions”, Am J Gastroenterology, 1999, 94(9), 2467-2474.

The nature of series [3]: Plasma compound levels by mass spectroscopy in 3H diet mice. It is filed as in vivo, mouse. The settings on record: for concentration at 2 h: male, C57BL/6N, plasma, read-out: Plasma Compound Level. As for the experimental part: Male C57BL/6N mice are fed with D09100301 diet (Research Diets, 40% fat, 2% cholesterol, 24% fructose, (the, high fat, high cholesterol and high fructose, the “3H diet”) for 150 days. Each mouse is then singly housed after 5 days for an acclimation period. Plasma alanine aminotransferase (ALT) and cytokeratin 18 (CK18) are measured. After one week of recovery, the mice are randomized into 5 groups based on their ALT values, CK18 values, and body weight. […] Blood is collected from mice treated with the compound of Example 6 for 76 days 2 hours after the last dose. Compound levels in the plasma are analyzed by mass spectroscopy.

The test system of series [4] is SSAO activity in rat plasma and liver. Nature of the series: SSAO target engagement in rat plasma and liver. The class given is in vivo. As to conditions: for SSAO Activity (%) Liver 24 hour / SSAO Activity (%) Plasma 2 hour / SSAO Activity (%) Plasma 24 hour: mean ± SEM, n = 6. Here is the method:
The SSAO activity in rat plasma and liver tissues are measured using the MAO-Glo™ assay kit from Promega (V1402). The residual SSAO activity in rats after compound treatment is estimated by measuring the total amine oxidase activity in plasma or liver lysates that are insensitive to the presence of the MAO inhibitor Clogyline and Pargyline. Rats are administered the compound of Example 2 at the doses of 15, 3, 0.6, 0.12, 0.025, 0.005 mg/kg. The control group is administered with the same volume (2 ml/kg) of the dosing vehicle (hydroxyethyl cellulose 1% w/v, 0.25% Tween 80). Plasma and liver at 2 or 24 hours post compound treatment are harvested and stored at −78° C. until analysis. Tissue lysates are prepared by homogenization in a lysis buffer (20 mM HEPES, pH 7.4, 150 mM NaCl, 1 mM EDTA, 1 mM EGTA, 1% Triton X-100 and 1× Roche Complete protease inhibitor tablet). Tissue particles are removed by centrifugation at 12,000 rpm at 4° C. for 30 minutes. 40 μl of plasma or liver lysates is incubated with Clogyline (10 μM) and Pargyline (10 μM) for 20 minutes at room temperature before the addition of the luminogenic substrate (50 μM) for 60 minutes. The product generated is quantified according to the manufacture's procedure. The fraction of activity that is insensitive to the presence of the MAO inhibitors is used as the surrogate for the residual SSAO activity. The compound of Example 2 was evaluated in the protocol essentially as described above administered at various doses.

[5] abbreviates: mouse 3H diet, 0.6 mg/kg once daily, mean ± SEM.
Where [6] appears, read: mouse 3H diet, 0.6 mg/kg, mean ± SEM.
Where [7] appears, read: mouse 3H diet, 2 mg/kg once daily, mean ± SEM.
The mark [8] stands for this setting: mouse 3H diet, 2 mg/kg, mean ± SEM.
Setting [9] is: mouse 3H diet, 6 mg/kg once daily, mean ± SEM.
The mark [10] stands for this setting: mouse 3H diet, 6 mg/kg, mean ± SEM.
[11] abbreviates: mouse 3H diet, 20 mg/kg once daily, mean ± SEM.
[12] abbreviates: mouse 3H diet, 20 mg/kg, mean ± SEM.

Sequence of human recombinant SSAO (hSSAO) (Q16853 whole entry, canonical isoform): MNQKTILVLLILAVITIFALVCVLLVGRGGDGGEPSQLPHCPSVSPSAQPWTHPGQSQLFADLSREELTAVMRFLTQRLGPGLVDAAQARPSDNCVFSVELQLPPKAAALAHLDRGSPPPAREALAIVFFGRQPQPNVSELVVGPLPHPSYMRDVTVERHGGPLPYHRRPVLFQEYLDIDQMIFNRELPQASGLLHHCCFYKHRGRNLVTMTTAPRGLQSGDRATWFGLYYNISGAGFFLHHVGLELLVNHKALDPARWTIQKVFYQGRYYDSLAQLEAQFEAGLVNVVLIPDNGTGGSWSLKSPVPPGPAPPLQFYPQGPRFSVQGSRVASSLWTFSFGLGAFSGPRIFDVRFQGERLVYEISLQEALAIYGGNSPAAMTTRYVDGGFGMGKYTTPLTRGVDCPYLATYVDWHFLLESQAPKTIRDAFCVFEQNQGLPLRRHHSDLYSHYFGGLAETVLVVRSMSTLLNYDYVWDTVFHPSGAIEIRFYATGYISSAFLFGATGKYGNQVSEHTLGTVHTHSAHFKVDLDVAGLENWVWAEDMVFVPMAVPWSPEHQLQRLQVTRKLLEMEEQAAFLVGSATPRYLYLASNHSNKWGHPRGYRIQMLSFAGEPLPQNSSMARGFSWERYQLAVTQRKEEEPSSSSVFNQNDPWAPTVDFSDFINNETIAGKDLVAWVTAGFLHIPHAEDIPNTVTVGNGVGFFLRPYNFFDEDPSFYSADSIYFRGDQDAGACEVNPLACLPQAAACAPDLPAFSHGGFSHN

In the case of `COC1CCN(c2ncc(OC/C(=C/F)CN)cn2)CC1` [Example 3, (E)-3-Fluoro-2-[[2-(4-methoxy-1-piperidyl)pyrimidin-5-yl]oxymethyl]prop-2-en-1-amine, Dihydrochloride], the IC50 in series [1] turned out to be 12 ± 1 nM.

In the case of `Cl.Cl.NC/C(=C\F)COc1cnc(N2CC[C@H](O)C2)nc1` [Example 6, (3 S)-1-[5-[(E)-2-(Aminomethyl)-3-fluoro-allyloxy]pyrimidin-2-yl]pyrrolidin-3-ol; Dihydrochloride], the IC50 in series [1] stood at 52 ± 5 nM. Further, the hepatic inflammation result in series [2] (20 mg/kg) is recorded as “significant decrease”. In series [2] (20 mg/kg), the macrovesicular vaculation result was “significant decrease”. In series [2] (20 mg/kg), the perisinusoidal fibrosis entry is “significant decrease”. For the same molecule, in series [2] (6 and 20 mg/kg), the “triglyceride levels in blood” value is “decreased”. Besides, the ALT entry is given as “significant decrease” in series [2] (all groups of treated mice); 530 ± 45 IU/L in series [2] (setting [5]); 483 ± 44 IU/L in series [2] (setting [7]); 495 ± 25 IU/L in series [2] (setting [9]); 466 ± 37 IU/L in series [2] (setting [11]). In addition, the “Plasma TG” value in series [2] (setting [5]) turned out to be 55 ± 6 mg/dL; in series [2] (setting [7]), 70 ± 11 mg/dL; in series [2] (setting [9]), 46 ± 4 mg/dL; in series [2] (setting [11]), 45 ± 5 mg/dL. Also, the “Hepatic inflammation Score (0-3) Left” value in series [2] (setting [6]) stood at 2.6 ± 0.1; in series [2] (setting [8]), 2.5 ± 0.1; in series [2] (setting [10]), 2.5 ± 0.2; in series [2] (setting [12]) it was 2.1 ± 0.1. In addition, the “Macrovesicular vaculation Score (0-3) Left” value in series [2] (setting [6]) amounted to 2.5 ± 0.1; in series [2] (setting [8]), 2.5 ± 0.1; in series [2] (setting [10]), 2.9 ± 0.1; in series [2] (setting [12]), 2.4 ± 0.2. Further, the “Perisinusoidal fibrosis Score (0-3) Left” value in series [2] (setting [6]) is listed as 2.4 ± 0.2; in series [2] (setting [8]) it was 2.5 ± 0.2; in series [2] (setting [10]), 2.6 ± 0.2; in series [2] (setting [12]), 1.9 ± 0.2. In addition, the “Hepatic inflammation Score (0-3) Right” value in series [2] (setting [6]) stood at 2.5 ± 0.1; in series [2] (setting [8]), 2.6 ± 0.1; in series [2] (setting [10]), 2.6 ± 0.2; in series [2] (setting [12]), 2.1 ± 0.1. Further, the “Macrovesicular vaculation Score (0-3) Right” value was 2.6 ± 0.1 in series [2] (setting [6]), 2.7 ± 0.1 in series [2] (setting [8]), 2.7 ± 0.1 in series [2] (setting [10]) and 2.3 ± 0.1 in series [2] (setting [12]). Further, the “Perisinusoidal fibrosis Score (0-3) Right” value came out at 1.9 ± 0.2 in series [2] (setting [6]), 1.8 ± 0.2 in series [2] (setting [8]), 2.1 ± 0.3 in series [2] (setting [10]) and 1.5 ± 0.2 in series [2] (setting [12]). Besides, the concentration at 2 h in series [3] (mouse, 2 mg/kg once daily, 76 days, 2 hours after last dose, mean ± SEM) was found to be 163 ± 21 ng/mL; in series [3] (mouse, 6 mg/kg once daily, 76 days, 2 hours after last dose, mean ± SEM), 560 ± 29 ng/mL; in series [3] (mouse, 20 mg/kg once daily, 76 days, 2 hours after last dose, mean ± SEM), 2120 ± 219 ng/mL. For the same molecule, the “Plasma Compound Level” value in series [3] (mouse, 0.6 mg/kg once daily, 76 days, 2 hours after last dose, mean ± SEM) is reported as 66. ± 5 ng/ml. Also, the plasma compound levels entry in series [3] (treated mice, all doses) was “dose-dependent increase”.

Turning to `CO[C@H]1CCN(c2ncc(OC/C(=C/F)CN)cn2)C1` [Example 5, (E)-3-Fluoro-2-[[2-[(3S)-3-methoxypyrrolidin-1-yl]pyrimidin-5-yl]oxymethyl]prop-2-en-1-amine], the IC50 in series [1] was found to be 32 ± 7 nM.

As to `Cl.Cl.NC/C(=C\F)COc1cnc(N2CCC(O)CC2)nc1` [Example 2, 1-[5-[(E)-2-(Aminomethyl)-3-fluoro-allyloxy]pyrimidin-2-yl]piperidin-4-ol Dihydrochloride], the “SSAO Activity (%) Liver 24 hour” value is given as 75 ± 18% in series [4] (0.005 mg/kg); 68 ± 14% in series [4] (0.025 mg/kg); 45 ± 8% in series [4] (0.12 mg/kg); 16.2 ± 2.9% in series [4] (0.6 mg/kg); 7.1 ± 1.7% in series [4] (3 mg/kg); 9.6 ± 2.6% in series [4] (15 mg/kg). The “SSAO Activity (%) Plasma 2 hour” value in series [4] (0.005 mg/kg) is recorded as 31 ± 3%; in series [4] (0.025 mg/kg), 21 ± 1%; in series [4] (0.12 mg/kg), 7 ± 1%; in series [4] (0.6 mg/kg), 4.3 ± 0.8%; in series [4] (3 mg/kg), 3.6 ± 1.0%; in series [4] (15 mg/kg) it was −0.6 ± 0.3%. Also, the “SSAO Activity (%) Plasma 24 hour” value worked out at 70 ± 7% in series [4] (0.005 mg/kg); 55 ± 9% in series [4] (0.025 mg/kg); 35 ± 4% in series [4] (0.12 mg/kg); 16.3 ± 2.6% in series [4] (0.6 mg/kg); 8.8 ± 1.3% in series [4] (3 mg/kg); 6.6 ± 1.8% in series [4] (15 mg/kg). The “SSAO activity in rat plasma and liver” value in series [4] (doses 0.005-15 mg/kg) is listed as “dose-dependently inhibits”.
